According to US20050009840A1 (SUGEN, INC., priority 2003, published 2005):

These molecules were tested against T1, HGFR (Homo sapiens, UniProt P08581) (assay: HGFR continuous-coupled spectrophotometric assay). Settings: at 1 pM; Table 6, library procedure 41; read-out: % Inhibition (percent c-MET inhibition).
T1 construct: purchased Upstate 14-526
Type: biochemical

T1 sequence (P08581 974-1390 limits assumed): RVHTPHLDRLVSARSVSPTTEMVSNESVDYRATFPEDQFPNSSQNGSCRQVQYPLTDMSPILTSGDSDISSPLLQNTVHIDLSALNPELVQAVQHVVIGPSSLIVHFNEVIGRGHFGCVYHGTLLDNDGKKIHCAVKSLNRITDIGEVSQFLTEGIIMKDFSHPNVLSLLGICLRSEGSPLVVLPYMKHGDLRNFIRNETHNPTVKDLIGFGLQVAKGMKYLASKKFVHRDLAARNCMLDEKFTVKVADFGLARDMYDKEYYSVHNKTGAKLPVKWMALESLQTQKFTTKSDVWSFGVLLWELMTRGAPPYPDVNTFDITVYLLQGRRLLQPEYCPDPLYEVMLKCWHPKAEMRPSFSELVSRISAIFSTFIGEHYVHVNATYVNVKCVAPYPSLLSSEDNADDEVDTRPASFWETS

| inhibition at 1 pM | Structure (SMILES) |
| --- | --- |
| 36% | Nc1ncc(C(=O)NCCN2CCN(Cc3ccccc3)CC2)cc1OCc1c(Cl)cccc1Cl [Example L-263] |
| 38% | Nc1ncc(C(=O)NC[C@H]2CC[C@H](c3nc4ccccc4[nH]3)CC2)cc1OCc1c(Cl)cccc1Cl [Example L-264] |
| 17% | Nc1ncc(C(=O)NCc2ccc(C(F)(F)F)nc2)cc1OCc1c(Cl)cccc1Cl [Example L-265] |
| 10% | CN(C)C(=O)c1cnc(N)c(OCc2c(Cl)cccc2Cl)c1 [Example L-266] |
| 5% | Nc1ncc(C(=O)N2CCN(c3ccc(Br)cn3)CC2)cc1OCc1c(Cl)cccc1Cl [Example L-267] |
| 15% | Cc1ccc(N2CCN(CCCCNC(=O)c3cnc(N)c(OCc4c(Cl)cccc4Cl)c3)CC2)cc1 [Example L-268] |
| 10% | Nc1ncc(C(=O)N2CCS(=O)(=O)CC2)cc1OCc1c(Cl)cccc1Cl [Example L-269] |
| 2% | C[C@@H]1CCC[C@H](C)N1CCNC(=O)c1cnc(N)c(OCc2c(Cl)cccc2Cl)c1 [Example L-270] |
| 16% | Nc1ncc(C(=O)N[C@@H]2CCC[C@H]2OCc2ccccc2)cc1OCc1c(Cl)cccc1Cl [Example L-271] |
| 15% | Nc1ncc(C(=O)NC[C@]2(O)CC[C@H](c3ccccc3)CC2)cc1OCc1c(Cl)cccc1Cl [Example L-272] |
| 17% | Nc1ncc(C(=O)NCCc2cccc(O)c2)cc1OCc1c(Cl)cccc1Cl [Example L-273] |
| 19% | N#CCCN1CCN(C(=O)c2cnc(N)c(OCc3c(Cl)cccc3Cl)c2)CC1 [Example L-274] |
| 28% | Nc1ncc(C(=O)NCc2cc3cc[nH]c3cn2)cc1OCc1c(Cl)cccc1Cl [Example L-275] |
| 32% | Nc1ncc(C(=O)NCC(O)CN2CCC(Cc3ccccc3)CC2)cc1OCc1c(Cl)cccc1Cl [Example L-276] |
| 26% | Nc1ncc(C(=O)N2CCCN(Cc3ccc(F)cc3)CC2)cc1OCc1c(Cl)cccc1Cl [Example L-277] |
| 31% | Cc1ccc(F)c(CNC(=O)c2cnc(N)c(OCc3c(Cl)cccc3Cl)c2)c1F [Example L-278] |
| 32% | Nc1ncc(C(=O)NCc2c(F)cccc2F)cc1OCc1c(Cl)cccc1Cl [Example L-279] |
| 56% | Nc1ncc(C(=O)N2CCN(CC(=O)Nc3ccccn3)CC2)cc1OCc1c(Cl)cccc1Cl [Example L-280] |
| 26% | Nc1ncc(C(=O)N2CCN(Cc3cccc4ccccc34)CC2)cc1OCc1c(Cl)cccc1Cl [Example L-281] |
| 22% | CCS(=O)(=O)N1CCN(C(=O)c2cnc(N)c(OCc3c(Cl)cccc3Cl)c2)CC1 [Example L-282] |
| 26% | Nc1ncc(C(=O)N2CCC(N3CCCCC3=O)CC2)cc1OCc1c(Cl)cccc1Cl [Example L-283] |
| 27% | Nc1ncc(C(=O)N2CCC3(CCNC3=O)CC2)cc1OCc1c(Cl)cccc1Cl [Example L-284] |
| 31% | Nc1ncc(C(=O)N2CCNC(=O)CC2)cc1OCc1c(Cl)cccc1Cl [Example L-285] |
| 47% | Nc1ncc(C(=O)N2CCCC(C(=O)N3CCCC3)C2)cc1OCc1c(Cl)cccc1Cl [Example L-286] |
| 21% | Nc1ncc(C(=O)N2CCCC(C(=O)N3CCOCC3)C2)cc1OCc1c(Cl)cccc1Cl [Example L-287] |

| inhibition at 1 pM | Structure (SMILES) |
| --- | --- |
| 20% | COCCNC(=O)C1CCCN(C(=O)c2cnc(N)c(OCc3c(Cl)cccc3Cl)c2)C1 [Example L-288] |
| 24% | CC(C)(O)c1ccc(CNC(=O)c2cnc(N)c(OCc3c(Cl)cccc3Cl)c2)cc1 [Example L-289] |
| 19% | Nc1ncc(C(=O)N2CCCC2c2ccncc2)cc1OCc1c(Cl)cccc1Cl [Example L-290] |
| 26% | Nc1ncc(C(=O)NCCc2nc3ccccc3s2)cc1OCc1c(Cl)cccc1Cl [Example L-291] |
| 99% | Nc1ncc(C(=O)NCC2=CSC3=NCCN23)cc1OCc1c(Cl)cccc1Cl [Example L-292] |
| 16% | Nc1ncc(C(=O)NC2CCCNC2=O)cc1OCc1c(Cl)cccc1Cl [Example L-293] |
| 20% | Cc1cc2cc(CNC(=O)c3cnc(N)c(OCc4c(Cl)cccc4Cl)c3)ccc2[nH]1 [Example L-294] |
| 18% | CN(C)C(CNC(=O)c1cnc(N)c(OCc2c(Cl)cccc2Cl)c1)c1cccnc1 [Example L-295] |
| 23% | CS(=O)(=O)C1CCN(C(=O)c2cnc(N)c(OCc3c(Cl)cccc3Cl)c2)C1 [Example L-296] |
| 26% | CN(CCS(C)(=O)=O)C(=O)c1cnc(N)c(OCc2c(Cl)cccc2Cl)c1 [Example L-297] |
| 31% | Nc1ncc(C(=O)NCCC2CCOCC2)cc1OCc1c(Cl)cccc1Cl [Example L-298] |
| 25% | CS(=O)(=O)CCN1CCN(C(=O)c2cnc(N)c(OCc3c(Cl)cccc3Cl)c2)CC1 [Example L-299] |
| 22% | Nc1ncc(C(=O)NC(CO)c2cccnc2)cc1OCc1c(Cl)cccc1Cl [Example L-300] |
| 24% | Nc1ncc(C(=O)N2CCN(CC(=O)N3CCCCC3)CC2)cc1OCc1c(Cl)cccc1Cl [Example L-301] |
| 41% | Nc1ncc(C(=O)N2CCC(Cc3ccc(F)cc3)CC2)cc1OCc1c(Cl)cccc1Cl [Example L-302] |
| 24% | Nc1ncc(C(=O)NCc2ncccc2O)cc1OCc1c(Cl)cccc1Cl [Example L-303] |
| 18% | CCCCOc1ccc(CNC(=O)c2cnc(N)c(OCc3c(Cl)cccc3Cl)c2)cc1 [Example L-304] |
| 26% | Nc1ncc(C(=O)NCc2ccc(OC(F)F)cc2)cc1OCc1c(Cl)cccc1Cl [Example L-305] |
| 22% | COc1ccc(C(CCO)NC(=O)c2cnc(N)c(OCc3c(Cl)cccc3Cl)c2)cc1 [Example L-306] |
| 22% | Nc1ncc(C(=O)N2CCNC(=O)C2)cc1OCc1c(Cl)cccc1Cl [Example L-307] |
| 33% | Nc1ncc(C(=O)NCc2c(F)cccc2C(F)(F)F)cc1OCc1c(Cl)cccc1Cl [Example L-308] |
| 16% | Nc1ncc(C(=O)N2CCCC(F)(F)C2)cc1OCc1c(Cl)cccc1Cl [Example L-309] |
| 16% | Nc1ncc(C(=O)NCc2ccc[nH]c2=O)cc1OCc1c(Cl)cccc1Cl [Example L-310] |
| 17% | Cc1ccc2c(c1)C(NC(=O)c1cnc(N)c(OCc3c(Cl)cccc3Cl)c1)CCO2 [Example L-311] |
| 19% | CCN1CCCC(NC(=O)c2cnc(N)c(OCc3c(Cl)cccc3Cl)c2)C1 [Example L-312] |

| inhibition at 1 pM | Structure (SMILES) |
| --- | --- |
| 10% | Nc1ncc(C(=O)N2CCC(COCc3ccccc3F)CC2)cc1OCc1c(Cl)cccc1Cl [Example L-313] |
| 16% | Nc1ncc(C(=O)NCCC2CCC(=O)N2CCc2ccc(O)cc2)cc1OCc1c(Cl)cccc1Cl [Example L-314] |
| 72% | Nc1ncc(C(=O)N2CCC(Cc3cnccn3)CC2)cc1OCc1c(Cl)cccc1Cl [Example L-315] |
| 11% | Nc1ncc(C(=O)N2CCC(Cc3cccc(CO)c3)CC2)cc1OCc1c(Cl)cccc1Cl [Example L-316] |
| 12% | NC(=O)c1ccc(CC2CCN(C(=O)c3cnc(N)c(OCc4c(Cl)cccc4Cl)c3)CC2)cc1 [Example L-317] |
| 17% | Nc1ncc(C(=O)N2CCC3(CC2)CC(N2CCNC(=O)C2)CO3)cc1OCc1c(Cl)cccc1Cl [Example L-318] |
| 71% | CCN(CC)CC1(O)CCN(C(=O)c2cnc(N)c(OCc3c(Cl)cccc3Cl)c2)CC1 [Example L-319] |
| 28% | Nc1ncc(C(=O)N2CCC3(CC2)CC(N2CCC(O)CC2)CO3)cc1OCc1c(Cl)cccc1Cl [Example L-320] |
| 25% | CN(CCC1CCC(=O)N1CC(F)(F)F)C(=O)c1cnc(N)c(OCc2c(Cl)cccc2Cl)c1 [Example L-321] |
| 25% | Nc1ncc(C(=O)N2CCC(O)(CCc3ccncc3)CC2)cc1OCc1c(Cl)cccc1Cl [Example L-322] |
| 26% | Nc1ncc(C(=O)NCc2noc(C(=O)N3CCC(CO)CC3)n2)cc1OCc1c(Cl)cccc1Cl [Example L-323] |
| 25% | Nc1ncc(C(=O)N2CCCC(Cc3ncccn3)C2)cc1OCc1c(Cl)cccc1Cl [Example L-324] |
| 26% | Nc1ncc(C(=O)N2CCC3(CC2)CC3C(=O)N2CCCCC2)cc1OCc1c(Cl)cccc1Cl [Example L-325] |
| 3% | Cc1noc([C@H]2CC[C@H](CNC(=O)c3cnc(N)c(OCc4c(Cl)cccc4Cl)c3)CC2)n1 [Example L-326] |
| 26% | Nc1ncc(C(=O)NCc2noc(C(=O)N3CC[C@H](O)C3)n2)cc1OCc1c(Cl)cccc1Cl [Example L-327] |
| 27% | Nc1ncc(C(=O)N2CCc3nnc(CCN4CCOCC4)n3CC2)cc1OCc1c(Cl)cccc1Cl [Example L-328] |
| 30% | C=C(Cl)/C(=C/O)COc1cc(C(=O)NC2COC3(CCN(Cc4[nH]cnc4C)CC3)C2)cnc1N [Example L-329] |
| 74% | CCC(CC)CN1CCC2(CC1)CC(NC(=O)c1cnc(N)c(OCc3c(Cl)cccc3Cl)c1)CO2 [Example L-330] |
| 23% | COCC1CN(CC(N)=O)CCN(C(=O)c2cnc(N)c(OCc3c(Cl)cccc3Cl)c2)C1 [Example L-331] |
| 21% | Nc1ncc(C(=O)NC2COC3(CCN(c4ncccn4)CC3)C2)cc1OCc1c(Cl)cccc1Cl [Example L-332] |
| 23% | Cc1nc(CCNC(=O)c2cnc(N)c(OCc3c(Cl)cccc3Cl)c2)cs1 [Example L-333] |
| 17% | CCCN(CCO)C1CCCN(C(=O)c2cnc(N)c(OCc3c(Cl)cccc3Cl)c2)CC1 [Example L-334] |
| 18% | Nc1ncc(C(=O)N2CCCC(N3CCOCC3)CC2)cc1OCc1c(Cl)cccc1Cl [Example L-335] |
| 20% | Nc1ncc(C(=O)NC2COC3(CCN(Cc4ccncc4)CC3)C2)cc1OCc1c(Cl)cccc1Cl [Example L-336] |
| 20% | Nc1ncc(C(=O)N2CCC(O)(CN3CCCC3=O)C2)cc1OCc1c(Cl)cccc1Cl [Example L-337] |
